Source: PubChem BioAssay AID743481 (Broad Institute, 2014)
Active and inactive are the calls of the source.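 Rule for the calls: active = compounds lowering cell ATP signal whose fitted AC50 is at most twice their highest tested dose; inconclusive = flat curve with moderate signal loss, or unreliable fit; inactive = the rest.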

Key:
[1] = cytotoxicity in HEK293T cells, dose response, cytotoxicity control, cell-based, CellTiter-Glo luminescence, dry powder (AID 743481); conditions: HEK293T viability, ATP luminescence, 72 h; at 26 µM (top of the series)
[2] = system: HEK293T viability, ATP luminescence, 72 h; test: as above

C[C@H]1CCCCO[C@@H](CN(C)C(=O)Nc2ccccc2)[C@@H](C)CN([C@@H](C)CO)C(=O)c2cc(NC(=O)NC3CCCCC3)ccc2O1
activity change, negative = cytotoxicity [1]: 3.42% (inactive)

C[C@H](CO)N1C[C@H](C)[C@H](CN(C)C(=O)Nc2cccc(F)c2)OCCCC[C@H](C)Oc2ccc(NC(=O)C3CCCCC3)cc2C1=O
activity change, negative = cytotoxicity [1]: 9.35% (inactive)

C[C@H](CO)N1C[C@H](C)[C@H](CN(C)C(=O)Nc2ccccc2F)OCCCC[C@H](C)Oc2ccc(NC(=O)C3CCCCC3)cc2C1=O
activity change, negative = cytotoxicity [1]: -11.7% (inactive)

C[C@H](CO)N1C[C@H](C)[C@H](CN(C)C(=O)Nc2ccccc2)OCCCC[C@H](C)Oc2ccc(NC(=O)C3CCCCC3)cc2C1=O
activity change, negative = cytotoxicity [1]: -9.15% (inactive)

C[C@H]1CCCCO[C@@H](CN(C)C(=O)Nc2ccc3c(c2)OCO3)[C@@H](C)CN([C@@H](C)CO)C(=O)c2cc(NC(=O)NC3CCCCC3)ccc2O1
activity change, negative = cytotoxicity [1]: -7.34% (inactive)

C[C@H](CO)N1C[C@H](C)[C@H](CN(C)C(=O)Nc2ccc(F)cc2)OCCCC[C@H](C)Oc2ccc(NC(=O)C3CCC3)cc2C1=O
activity change, negative = cytotoxicity [1]: -3.85% (inactive)

C[C@@H]1CCCCO[C@H](CN(C)C(=O)Nc2cccc3ccccc23)[C@@H](C)CN([C@H](C)CO)C(=O)c2cc(NC(=O)C3CCCCC3)ccc2O1
activity change, negative = cytotoxicity [1]: -3.68% (inactive)

C[C@H]1CCCCO[C@@H](CN(C)C(=O)Nc2cccc3ccccc23)[C@@H](C)CN([C@@H](C)CO)C(=O)c2cc(NC(=O)C3CCCCC3)ccc2O1
activity change, negative = cytotoxicity [1]: -14.3% (inactive)

C[C@H](CO)N1C[C@H](C)[C@H](CN(C)C(=O)Nc2cccc3ccccc23)OCCCC[C@H](C)Oc2ccc(NC(=O)CCC(F)(F)F)cc2C1=O
activity change, negative = cytotoxicity [1]: 24.6% (inactive)

COc1ccc(NC(=O)N(C)C[C@@H]2OCCCC[C@H](C)Oc3ccc(NC(=O)NC4CCCCC4)cc3C(=O)N([C@H](C)CO)C[C@@H]2C)cc1
activity change, negative = cytotoxicity [1]: -10.6% (inactive)

C[C@@H]1CCCCO[C@H](CN(C)C(=O)Nc2cccc3ccccc23)[C@@H](C)CN([C@@H](C)CO)C(=O)c2cc(NC(=O)C3CCCCC3)ccc2O1
activity change, negative = cytotoxicity [1]: 6.63% (inactive)

C[C@H](CO)N1C[C@H](C)[C@H](CN(C)C(=O)Nc2ccc(F)cc2)OCCCC[C@H](C)Oc2ccc(NC(=O)C3CCCCC3)cc2C1=O
activity change, negative = cytotoxicity [1]: -7.09% (inactive)

COc1ccc(NC(=O)N(C)C[C@@H]2OCCCC[C@H](C)Oc3ccc(NC(=O)C4CCCCC4)cc3C(=O)N([C@H](C)CO)C[C@@H]2C)cc1
activity change, negative = cytotoxicity [1]: -7.25% (inactive)

C[C@H](CO)N1C[C@H](C)[C@H](CN(C)C(=O)Nc2ccc(F)cc2)OCCCC[C@H](C)Oc2ccc(NC(=O)C3CCCCCC3)cc2C1=O
activity change, negative = cytotoxicity [1]: -6.61% (inactive)

C[C@@H]1CCCCO[C@@H](CN(C)C(=O)Nc2cccc3ccccc23)[C@H](C)CN([C@H](C)CO)C(=O)c2cc(NC(=O)C3CCCCC3)ccc2O1
activity change, negative = cytotoxicity [1]: -11.7% (inactive)

C[C@H](CO)N1C[C@H](C)[C@H](CN(C)C(=O)Nc2cccc3ccccc23)OCCCC[C@H](C)Oc2ccc(NC(=O)C3CCCCC3)cc2C1=O
activity change, negative = cytotoxicity [1]: -4.95% (inactive)

C[C@H](CO)N1C[C@H](C)[C@H](CN(C)C(=O)Nc2ccccc2)OCCCC[C@H](C)Oc2ccc(NC(=O)Nc3ccc4c(c3)OCO4)cc2C1=O
activity change, negative = cytotoxicity [1]: -5.94% (inactive)

C[C@@H]1CN([C@@H](C)CO)C(=O)c2cc(NC(=O)C3CCCCC3)ccc2O[C@@H](C)CCCCO[C@@H]1CN(C)C(=O)Nc1cccc2ccccc12
activity change, negative = cytotoxicity [1]: -17% (inactive)

C[C@H](CO)N1C[C@H](C)[C@H](CN(C)C(=O)Nc2ccccc2)OCCCC[C@H](C)Oc2ccc(NC(=O)Nc3ccccc3)cc2C1=O
activity change, negative = cytotoxicity [1]: 0.603% (inactive)

C[C@H](CO)N1C[C@H](C)[C@H](CN(C)C(=O)Nc2ccc(F)cc2)OCCCC[C@H](C)Oc2ccc(NC(=O)Nc3ccccc3)cc2C1=O
activity change, negative = cytotoxicity [1]: -10.5% (inactive)

C[C@H](CO)N1C[C@H](C)[C@H](CN(C)C(=O)Nc2ccccc2)OCCCC[C@H](C)Oc2ccc(NC(=O)NC3CCCCC3)cc2C1=O
activity change, negative = cytotoxicity [1]: -8.51% (inactive)

C[C@H](CO)N1C[C@H](C)[C@H](CN(C)C(=O)Nc2ccc3c(c2)OCO3)OCCCC[C@H](C)Oc2ccc(NC(=O)NC3CCCCC3)cc2C1=O
activity change, negative = cytotoxicity [1]: -11.1% (inactive)

C[C@H](CO)N1C[C@H](C)[C@H](CN(C)C(=O)Nc2ccc3c(c2)OCO3)OCCCC[C@H](C)Oc2ccc(NC(=O)C3CCCCC3)cc2C1=O
activity change, negative = cytotoxicity [1]: 2.78% (inactive)

C[C@H](CO)N1C[C@H](C)[C@H](CN(C)C(=O)Nc2ccc3ccccc3c2)OCCCC[C@H](C)Oc2ccc(NC(=O)C3CCCCC3)cc2C1=O
activity change, negative = cytotoxicity [1]: 7.21% (inactive)

C[C@H](CO)N1C[C@H](C)[C@H](CN(C)C(=O)Nc2ccc(C(F)(F)F)cc2)OCCCC[C@H](C)Oc2ccc(NC(=O)CCC(F)(F)F)cc2C1=O
AC50 [2]: > 52 µM (inactive)

C[C@@H]1CCCCO[C@H](CN(C)C(=O)Nc2cccc3ccccc23)[C@H](C)CN([C@@H](C)CO)C(=O)c2cc(NC(=O)C3CCCCC3)ccc2O1
activity change, negative = cytotoxicity [1]: -10.3% (inactive)

C[C@H](CO)N1C[C@H](C)[C@H](CN(C)C(=O)Nc2ccc(Cl)cc2)OCCCC[C@H](C)Oc2ccc(NC(=O)C3CCCCC3)cc2C1=O
activity change, negative = cytotoxicity [1]: -12.5% (inactive)

C[C@H](CO)N1C[C@H](C)[C@H](CN(C)C(=O)Nc2ccc(F)cc2)OCCCC[C@H](C)Oc2ccc(NC(=O)C3CCCC3)cc2C1=O
activity change, negative = cytotoxicity [1]: 9.39% (inactive)

C[C@H](CO)N1C[C@H](C)[C@H](CN(C)C(=O)Nc2ccc(C(F)(F)F)cc2)OCCCC[C@H](C)Oc2ccc(NC(=O)NC3CCCCC3)cc2C1=O
activity change, negative = cytotoxicity [1]: 5.48% (inactive)

C[C@H](CO)N1C[C@H](C)[C@H](CN(C)C(=O)Nc2ccc(F)cc2)OCCCC[C@H](C)Oc2ccc(NC(=O)NC3CCCCC3)cc2C1=O
activity change, negative = cytotoxicity [1]: -9.87% (inactive)

C[C@H](CO)N1C[C@H](C)[C@H](CN(C)C(=O)Nc2cccc3ccccc23)OCCCC[C@H](C)Oc2ccc(NC(=O)c3ccccc3)cc2C1=O
activity change, negative = cytotoxicity [1]: -8.78% (inactive)

C[C@H]1CCCCO[C@@H](CN(C)C(=O)Nc2ccc(F)cc2)[C@@H](C)CN([C@@H](C)CO)C(=O)c2cc(NC(=O)C3CCCCC3)ccc2O1
activity change, negative = cytotoxicity [1]: -15.6% (inactive)

C[C@H](CO)N1C[C@H](C)[C@@H](CN(C)C(=O)Nc2cccc3ccccc23)OCCCC[C@H](C)Oc2ccc(NC(=O)C3CCCCC3)cc2C1=O
activity change, negative = cytotoxicity [1]: -7.19% (inactive)

C[C@@H]1CCCCO[C@@H](CN(C)C(=O)Nc2cccc3ccccc23)[C@@H](C)CN([C@H](C)CO)C(=O)c2cc(NC(=O)C3CCCCC3)ccc2O1
activity change, negative = cytotoxicity [1]: -15.4% (inactive)

C[C@H](CO)N1C[C@H](C)[C@H](CN(C)C(=O)Nc2ccccc2)OCCCC[C@H](C)Oc2ccc(NC(=O)CCC(F)(F)F)cc2C1=O
activity change, negative = cytotoxicity [1]: -6.87% (inactive)

C[C@H](CO)N1C[C@H](C)[C@H](CN(C)C(=O)Nc2ccc(F)cc2)OCCCC[C@H](C)Oc2ccc(NC(=O)Nc3ccc(F)cc3)cc2C1=O
activity change, negative = cytotoxicity [1]: -12.4% (inactive)

CC(=O)Nc1ccc2c(c1)C(=O)N([C@H](C)CO)C[C@H](C)[C@H](CN(C)C(=O)Nc1ccc(F)cc1)OCCCC[C@H](C)O2
activity change, negative = cytotoxicity [1]: -16.5% (inactive)

C[C@H]1CCCCO[C@@H](CN(C)S(=O)(=O)c2ccc(Cl)cc2)[C@@H](C)CN([C@@H](C)CO)C(=O)c2cc(NC(=O)NC3CCCCC3)ccc2O1
AC50 [2]: 15.8 µM

C[C@@H]1CN([C@@H](C)CO)C(=O)c2cc(NC(=O)C3CCCCC3)ccc2O[C@@H](C)CCCCO[C@H]1CN(C)C(=O)Nc1cccc2ccccc12
AC50 [2]: 7.74 µM

C[C@H](CO)N1C[C@H](C)[C@H](CN(C)C(=O)Nc2cccc3ccccc23)OCCCC[C@H](C)Oc2ccc(NC(=O)NC3CCCCC3)cc2C1=O
activity change, negative = cytotoxicity [1]: -18.8% (inactive)

COc1ccc(S(=O)(=O)N(C)C[C@@H]2OCCCC[C@H](C)Oc3ccc(NS(=O)(=O)c4ccc(Cl)cc4)cc3C(=O)N([C@@H](C)CO)C[C@@H]2C)cc1
AC50 [2]: 16.4 µM

Cc1ccc(NC(=O)N(C)C[C@@H]2OCCCC[C@H](C)Oc3ccc(NC(=O)C4CCCCC4)cc3C(=O)N([C@H](C)CO)C[C@@H]2C)cc1
activity change, negative = cytotoxicity [1]: 9.91% (inactive)

CC(C)(C)c1ccc(-c2nc(-c3ccncc3)no2)cc1
activity change, negative = cytotoxicity [1]: -16.3% (inactive)

C[C@@H]1CCCCO[C@H](CN(C)C(=O)Nc2cccc3ccccc23)[C@H](C)CN([C@H](C)CO)C(=O)c2cc(NC(=O)C3CCCCC3)ccc2O1
activity change, negative = cytotoxicity [1]: 3.66% (inactive)

C[C@@H]1CCCCO[C@@H](CN(C)C(=O)Nc2cccc3ccccc23)[C@@H](C)CN([C@@H](C)CO)C(=O)c2cc(NC(=O)C3CCCCC3)ccc2O1
activity change, negative = cytotoxicity [1]: -16.3% (inactive)

C[C@H](CO)N1C[C@H](C)[C@H](CN(C)C(=O)Nc2ccc(F)cc2)OCCCC[C@H](C)Oc2ccc(NC(=O)C3CCOCC3)cc2C1=O
activity change, negative = cytotoxicity [1]: -1.32% (inactive)

C[C@H](CO)N1C[C@H](C)[C@H](CN(C)C(=O)Nc2ccc(F)cc2)OCCCC[C@H](C)Oc2ccc(NC(=O)C3CC3)cc2C1=O
activity change, negative = cytotoxicity [1]: -1.35% (inactive)

C[C@@H]1CCCCO[C@@H](CN(C)C(=O)Nc2cccc3ccccc23)[C@H](C)CN([C@@H](C)CO)C(=O)c2cc(NC(=O)C3CCCCC3)ccc2O1
activity change, negative = cytotoxicity [1]: -12.5% (inactive)
